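96-well plates; 48 h exposure; 5 concentrations. Endpoints by linear interpolation between flanking doses. Not reached: highest tested concentration assigned. Here, GI50 denotes the concentration required for 50% inhibition of growth.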 Active and inactive are the calls of the source. No stated cut-off is given here; in the data, active = GI50 up to about 1.1 µM and inactive = higher.
Key:
Test in all cases: NCI anticancer screen, dose series, 48 h
786-0 = test system: 786-0
ACHN = test system: ACHN
BT-549 = test system: BT-549
CCRF-CEM = test system: CCRF-CEM
DU-145 = test system: DU-145
KM12 = test system: KM12
LOX IMVI = test system: LOX IMVI
M14 = test system: M14
MCF7 = test system: MCF7
OVCAR-4 = test system: OVCAR-4
OVCAR-8 = test system: OVCAR-8
PC-3 = test system: PC-3
SF-268 = test system: SF-268
SK-MEL-28 = test system: SK-MEL-28
SK-OV-3 = test system: SK-OV-3
SN12C = test system: SN12C
SW-620 = test system: SW-620
UACC-257 = test system: UACC-257

| SMILES | GI50 (786-0) | GI50 (ACHN) | GI50 (BT-549) | GI50 (CCRF-CEM) | GI50 (DU-145) | GI50 (KM12) | GI50 (LOX IMVI) | GI50 (M14) | GI50 (MCF7) | GI50 (OVCAR-4) | GI50 (OVCAR-8) | GI50 (PC-3) | GI50 (SF-268) | GI50 (SK-MEL-28) | GI50 (SK-OV-3) | GI50 (SN12C) | GI50 (SW-620) | GI50 (UACC-257) |
| --- | --- | --- | --- | --- | --- | --- | --- | --- | --- | --- | --- | --- | --- | --- | --- | --- | --- | --- |
| O=C1C(c2c(O)[nH]c3ccccc23)=Nc2ccc(Br)cc21 | 9.62 µM (inactive) | 14.5 µM (inactive) | 28.2 µM (inactive) | 21.2 µM (inactive) | 8.11 µM (inactive) | 17.1 µM (inactive) | 51.8 µM (inactive) | 93.5 µM (inactive) | 1.24 µM (inactive) | 14.9 µM (inactive) | 15.1 µM (inactive) | 14.8 µM (inactive) | 25.4 µM (inactive) | > 100 µM (inactive) | 18.4 µM (inactive) | 77.1 µM (inactive) | 39.6 µM (inactive) | 58.6 µM (inactive) |
| COc1ccc(OC)c2c(/C=C/c3ccc(N(C)C)cc3)ccnc12 | 4.01 µM (inactive) | 4.68 µM (inactive) | > 10 µM (inactive) | 2.48 µM (inactive) | > 10 µM (inactive) | > 10 µM (inactive) | 2.94 µM (inactive) | 7.36 µM (inactive) | 3.52 µM (inactive) | 4.32 µM (inactive) | > 10 µM (inactive) | > 10 µM (inactive) | > 10 µM (inactive) | 3.3 µM (inactive) | > 10 µM (inactive) | 8.05 µM (inactive) | > 10 µM (inactive) | 4 µM (inactive) |
| O=C1CSC(c2cccc(Oc3ccccc3)c2)N1c1ccc(Cl)cc1 (stereo not given) | 31.8 µM (inactive) | 26.1 µM (inactive) | 27.7 µM (inactive) | 51.4 µM (inactive) | 52.2 µM (inactive) | 21.3 µM (inactive) | 18 µM (inactive) | 15 µM (inactive) | 15.3 µM (inactive) | 26.2 µM (inactive) | 34.7 µM (inactive) | 23 µM (inactive) | 30.3 µM (inactive) | 41.2 µM (inactive) | 66.4 µM (inactive) | 41.3 µM (inactive) | 33.6 µM (inactive) | 17.4 µM (inactive) |
| N#Cc1cc2c(cc1Cl)Sc1nnc(Nc3ccccc3)n1S2(=O)=O | 2.32 µM (inactive) | 1.74 µM (inactive) | 2.47 µM (inactive) | 1.56 µM (inactive) | 2.01 µM (inactive) | 2.06 µM (inactive) | 1.73 µM (inactive) | 2.17 µM (inactive) | 8.39 µM (inactive) | 2.68 µM (inactive) | 2 µM (inactive) | 1.74 µM (inactive) | 2.82 µM (inactive) | 2.26 µM (inactive) | 5.04 µM (inactive) | 1.71 µM (inactive) | 1.52 µM (inactive) | 1.79 µM (inactive) |
| CN1c2ccccc2C2c3c(O)ccc(O)c3C=C([N+](=O)[O-])C21 (stereo not given) | 0.519 µM (active) | 0.679 µM (active) | 5.36 µM (inactive) | 1.04 µM (active) | 1.44 µM (inactive) | 0.39 µM (active) | 0.407 µM (active) | 0.513 µM (active) | 0.155 µM (active) | 1.21 µM (inactive) | 0.286 µM (active) | 0.388 µM (active) | 0.388 µM (active) | 2.03 µM (inactive) | 3.72 µM (inactive) | 0.312 µM (active) | 0.406 µM (active) | 0.19 µM (active) |
| Cc1cc([C@H](C#N)c2nc3ccccc3[nH]2)nc(Cl)n1 | 54.5 µM (inactive) | 38.2 µM (inactive) | 53.6 µM (inactive) | 30.8 µM (inactive) | 30.6 µM (inactive) | 14.9 µM (inactive) | 38.8 µM (inactive) | – | 41.8 µM (inactive) | 40.4 µM (inactive) | 30.4 µM (inactive) | 30.9 µM (inactive) | > 100 µM (inactive) | 39.1 µM (inactive) | > 100 µM (inactive) | 51.2 µM (inactive) | 24.2 µM (inactive) | 26.5 µM (inactive) |
| Cn1c(=O)c2c(nc3n(CCCCl)c(=O)ccn23)n(C)c1=O | > 100 µM (inactive) | > 100 µM (inactive) | > 100 µM (inactive) | > 100 µM (inactive) | > 100 µM (inactive) | > 100 µM (inactive) | > 100 µM (inactive) | > 100 µM (inactive) | > 100 µM (inactive) | > 100 µM (inactive) | > 100 µM (inactive) | > 100 µM (inactive) | > 100 µM (inactive) | > 100 µM (inactive) | > 100 µM (inactive) | > 100 µM (inactive) | > 100 µM (inactive) | > 100 µM (inactive) |
| O=C1C(Cl)=C(N2CCOCC2)C(=O)c2c(O)ccc(O)c21 | 0.296 µM (active) | 0.263 µM (active) | 0.173 µM (active) | 0.473 µM (active) | 1.53 µM (inactive) | 1.64 µM (inactive) | 0.186 µM (active) | 0.182 µM (active) | 0.213 µM (active) | 0.256 µM (active) | 0.368 µM (active) | 0.536 µM (active) | 1.36 µM (inactive) | 0.288 µM (active) | 2.81 µM (inactive) | 0.207 µM (active) | 0.156 µM (active) | 0.33 µM (active) |
| CC(=O)O[C@H]1CC[C@H]2[C@@H]3CCC4C(C)=NNC(=O)C4[C@H]3CC[C@]12C (stereo not given in full) | 40.3 µM (inactive) | 57.5 µM (inactive) | > 45.3 µM (inactive) | > 100 µM (inactive) | > 75.5 µM (inactive) | > 100 µM (inactive) | > 38.6 µM (inactive) | > 100 µM (inactive) | > 100 µM (inactive) | > 100 µM (inactive) | 38 µM (inactive) | > 100 µM (inactive) | 34 µM (inactive) | > 100 µM (inactive) | > 95.1 µM (inactive) | 95.5 µM (inactive) | > 100 µM (inactive) | > 100 µM (inactive) |
| O=C1Nc2ccc(S(=O)(=O)NCCO)cc2/C1=C1/Nc2ccccc2C1=O | 9.31 µM (inactive) | 6.97 µM (inactive) | 3.98 µM (inactive) | 3.23 µM (inactive) | 8 µM (inactive) | 0.385 µM (active) | 42 µM (inactive) | > 100 µM (inactive) | 0.475 µM (active) | 3.06 µM (inactive) | 11 µM (inactive) | 12.2 µM (inactive) | 9.59 µM (inactive) | > 100 µM (inactive) | 5.42 µM (inactive) | 67.5 µM (inactive) | 11.9 µM (inactive) | > 100 µM (inactive) |
| CC(ON(C(c1ccccc1)C(C)C)C(C)(C)C)c1ccccc1 (stereo not given) | 16.4 µM (inactive) | 15.8 µM (inactive) | 12.6 µM (inactive) | 19.1 µM (inactive) | 18.5 µM (inactive) | 18.4 µM (inactive) | 18.4 µM (inactive) | 22.7 µM (inactive) | 16.4 µM (inactive) | 27 µM (inactive) | 21.8 µM (inactive) | 33.8 µM (inactive) | 24.4 µM (inactive) | 20.4 µM (inactive) | 39.3 µM (inactive) | 16.8 µM (inactive) | 16.2 µM (inactive) | 17.2 µM (inactive) |
| COC(=O)/C=C(\C(=O)OC)C1C(=O)Oc2c(C)c(=O)c3ccccc3n21 (stereo not given) | > 100 µM (inactive) | – | > 100 µM (inactive) | > 100 µM (inactive) | > 100 µM (inactive) | > 100 µM (inactive) | > 100 µM (inactive) | > 100 µM (inactive) | > 100 µM (inactive) | > 100 µM (inactive) | > 100 µM (inactive) | > 100 µM (inactive) | > 100 µM (inactive) | > 100 µM (inactive) | > 100 µM (inactive) | > 100 µM (inactive) | > 100 µM (inactive) | > 100 µM (inactive) |
| O=C1OC(c2ccccc2)=NC1c1ccccc1 (stereo not given) | > 100 µM (inactive) | > 100 µM (inactive) | > 100 µM (inactive) | > 100 µM (inactive) | > 100 µM (inactive) | > 100 µM (inactive) | > 100 µM (inactive) | > 100 µM (inactive) | > 100 µM (inactive) | > 100 µM (inactive) | > 100 µM (inactive) | > 100 µM (inactive) | > 100 µM (inactive) | > 100 µM (inactive) | > 100 µM (inactive) | > 100 µM (inactive) | > 100 µM (inactive) | > 100 µM (inactive) |
| COc1ccc2c(c1)[nH]c1c(/C=C/c3ccccc3)nccc12 | 15.1 µM (inactive) | 12.2 µM (inactive) | 12.8 µM (inactive) | 17 µM (inactive) | 20.5 µM (inactive) | 14.1 µM (inactive) | 18.7 µM (inactive) | 15.9 µM (inactive) | 16 µM (inactive) | 19.6 µM (inactive) | 14.2 µM (inactive) | 16.1 µM (inactive) | 17.7 µM (inactive) | 14.9 µM (inactive) | 13.8 µM (inactive) | 14.2 µM (inactive) | 15.9 µM (inactive) | 16.1 µM (inactive) |
| Cc1c(O)c(OC2OC(CO)C(O)C(O)C2O)cc2c1CC[C@@H]1C2(C)C(=O)C[C@]2(C)[C@@H]([C@@](C)(O)C3CCC(C)(C)O3)[C@H](O)C[C@@]12C (stereo not given in full) | > 100 µM (inactive) | > 100 µM (inactive) | > 100 µM (inactive) | > 100 µM (inactive) | > 100 µM (inactive) | > 100 µM (inactive) | > 100 µM (inactive) | > 100 µM (inactive) | > 100 µM (inactive) | > 100 µM (inactive) | > 100 µM (inactive) | > 100 µM (inactive) | > 100 µM (inactive) | > 100 µM (inactive) | > 100 µM (inactive) | > 100 µM (inactive) | > 100 µM (inactive) | > 100 µM (inactive) |
| CCOC(=O)Nc1cc2c(c(N)n1)N=C(c1ccc(Cl)cc1Cl)CN2 | < 0.0217 µM (active) | 0.0535 µM (active) | 0.791 µM (active) | < 0.0155 µM (active) | < 0.0191 µM (active) | < 0.0174 µM (active) | < 0.0195 µM (active) | 0.0766 µM (active) | 0.132 µM (active) | 14.3 µM (inactive) | 0.0276 µM (active) | < 0.0129 µM (active) | 0.0845 µM (active) | – | 0.509 µM (active) | 0.0805 µM (active) | < 0.0194 µM (active) | 20.8 µM (inactive) |

Reference: ChEMBL document CHEMBL1201862, “PubChem BioAssay data set” (2004)
